Measurements as given in patent publication US10953012B2, “Heterocyclic compounds for the inhibition of pask” (BioEnergenix LLC, priority 2011, dated 2021).

What follows are compounds tested against CK2a2 (Homo sapiens (Human), UniProt P19784) (assay: Biochemical Assay for CK2 Activity). Conditions: 33P-ATP radiochemical assay; read-out: IC50 CK2 a2.
Method: Biochemical Assay for CK2 Activity
Purified CK2a2 (NP_001887; human full-length protein, GST tagged) from insect cells (final concentration 1.2 nM) is added to freshly prepared Base Reaction Buffer containing 20 mM Hepes (pH 7.5), 10 mM MgCl2, 1 mM EGTA, 0.02% Brij35, 0.02 mg/ml BSA, 0.1 mM Na3VO4, 2 mM DTT, 1% DMSO and CK2 sub [RRRDDDSDDD] (20 μM final). Test compounds in DMSO are then added and the mixture, followed by delivery of ^33P-ATP (specific activity 0.01 μCi/μl final) to initiate the reaction. The kinase reaction is incubated for 120 min at room temperature. The entire reaction mixture is washed through onto a P81 Phosphocellulose paper and washed three times for 10 minutes in 75 mM phosphoric acid and once in methanol prior to drying and scintillation counting.

CK2a2, sequence (P19784 whole entry): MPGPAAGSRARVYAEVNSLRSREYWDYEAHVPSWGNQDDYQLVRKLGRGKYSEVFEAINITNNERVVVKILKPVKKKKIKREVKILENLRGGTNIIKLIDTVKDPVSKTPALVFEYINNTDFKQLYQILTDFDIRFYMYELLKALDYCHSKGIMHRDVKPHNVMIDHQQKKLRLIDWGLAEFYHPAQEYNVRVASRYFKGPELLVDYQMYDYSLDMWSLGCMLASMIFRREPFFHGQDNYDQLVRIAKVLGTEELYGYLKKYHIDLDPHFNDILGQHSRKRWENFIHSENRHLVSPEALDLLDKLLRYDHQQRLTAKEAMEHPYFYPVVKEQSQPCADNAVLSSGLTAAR

Structure (SMILES) | IC50 [µM]
COc1ccc(-c2cc(=O)n3ncc(-c4ccc(F)cc4)c3[nH]2)cc1 [Example 53, 3-(4-Fluorophenyl)-5-(4-methoxyphenyl)pyrazolo[1,5-a]pyrimidin-7(4H)-one] | ≤ 10
Cc1nn2c(=O)cc(-c3ccc4c(c3)OCCO4)[nH]c2c1-c1ccccc1 [Example 54, 5-(2,3-Dihydrobenzo[b][1,4]dioxin-6-yl)-2-methyl-3-phenylpyrazolo[1,5-a]pyrimidin-7(4H)-one] | ≤ 10
Cc1nn2c(=O)cc(-c3ccc4c(c3)CCO4)[nH]c2c1-c1ccccc1 [Example 55, 5-(2,3-Dihydrobenzofuran-5-yl)-2-methyl-3-phenylpyrazolo[1,5-a]pyrimidin-7(4H)-one] | ≤ 10
COc1ccc(-c2cc(=O)n3ncc(-c4ccccn4)c3[nH]2)cc1 [Example 56, 5-(4-Methoxyphenyl)-3-(pyridin-2-yl)pyrazolo[1,5-a]pyrimidin-7(4H)-one] | ≤ 10
Cc1nn2c(=O)cc(-c3ccccc3)[nH]c2c1Cc1ccc(Cl)cc1 [Example 61] | ≤ 10
Cc1nn2c(=O)cc(-c3ccc(OC(C)C)cc3)[nH]c2c1Cc1ccc(Cl)cc1 [Example 63, 3-(4-Chlorobenzyl)-5-(4-isopropoxyphenyl)-2-methylpyrazolo[1,5-a]pyrimidin-7(4H)-one] | ≥ 10
COc1cccc(-c2cc(=O)n3nc(C)c(Cc4ccc(Cl)cc4)c3[nH]2)c1 [Example 64, 3-(4-Chlorobenzyl)-5-(3-methoxyphenyl)-2-methylpyrazolo[1,5-a]pyrimidin-7(4H)-one] | ≥ 10
COC(=O)c1ccc(-c2cc(=O)n3nc(C)c(Cc4ccc(Cl)cc4)c3[nH]2)cc1 [Example 65, Methyl 4-(3-(4-chlorobenzyl)-2-methyl-7-oxo-4,7-dihydropyrazolo[1,5-a]pyrimidin-5-yl)benzoate] | ≥ 10
Cc1nn2c(=O)cc(-c3ccc(C(N)=O)cc3)[nH]c2c1Cc1ccc(Cl)cc1 [Example 66, 4-(3-(4-Chlorobenzyl)-2-methyl-7-oxo-4,7-dihydropyrazolo[1,5-a]pyrimidin-5-yl)benzamide] | ≥ 10
Cc1nn2c(=O)cc(-c3ccc(C(F)(F)F)cc3)[nH]c2c1Cc1ccc(Cl)cc1 [Example 67, 3-(4-Chlorobenzyl)-2-methyl-5-(4-(trifluoromethyl)phenyl)pyrazolo[1,5-a]pyrimidin-7(4H)-one] | ≥ 10
COc1ccc(-c2cc(=O)n3nc(C)c(Cc4ccccc4)c3[nH]2)cc1OC [Example 68, 3-Benzyl-5-(3,4-dimethoxyphenyl)-2-methylpyrazolo[1,5-a]pyrimidin-7(4H)-one] | ≥ 10
COc1ccc(-c2cc(=O)n3nc(C)c(Cc4ccc(Cl)cc4)c3[nH]2)cc1OC [Example 69, 3-(4-Chlorobenzyl)-5-(3,4-dimethoxyphenyl)-2-methylpyrazolo[1,5-a]pyrimidin-7(4H)-one] | ≥ 10
COc1ccc(-c2cc(=O)n3nc(C)c(Cc4ccccc4Cl)c3[nH]2)cc1 [Example 70, 3-(2-Chlorobenzyl)-5-(4-methoxyphenyl)-2-methylpyrazolo[1,5-a]pyrimidin-7-(4H)-one] | ≥ 10
O=c1cc(-c2ccc3c(c2)OCCO3)[nH]c2c(-c3ccc(N4CCCCC4)nc3)cnn12 [Example 89, 5-(2,3-Dihydrobenzo[b][1,4]dioxin-6-yl)-3-(6-(piperidin-1-yl)pyridin-3-yl)pyrazolo[1,5-a]pyrimidin-7(4H)-one] | ≤ 10
O=c1cc(-c2ccc3c(c2)OCCO3)[nH]c2c(-c3cccc(F)c3)cnn12 [Example 91, 5-(2,3-Dihydrobenzo[b][1,4]dioxin-6-yl)-3-(3-fluorophenyl)pyrazolo[1,5-a]pyrimidin-7(4H)-one] | ≤ 10
O=c1cc(-c2ccc3c(c2)OCCO3)[nH]c2c(-c3cccnc3)c(O)nn12 [Example 101, 5-(2,3-Dihydrobenzo[b][1,4]dioxin-6-yl)-2-hydroxy-3-(pyridin-3-yl)pyrazolo[1,5-a]pyrimidin-7(4H)-one] | ≤ 10
O=c1cc(-c2cc3ccccc3o2)[nH]c2c(-c3ccccn3)cnn12 [Example 149, 5-(Benzofuran-2-yl)-3-(pyridin-2-yl)pyrazolo[1,5-a]pyrimidin-7(4H)-one] | ≤ 10

The compounds below were run against PASK (Homo sapiens (Human), UniProt Q96RG2) (assay: PAS Kinase FRET Assay). Conditions: TR-FRET assay; read-out: IC50 Kinase Domain.
Type: biochemical
How it was run: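 TR-FRET read-out (665/615 nm) of ULight-peptide phosphorylation by PASK, detected with Eu-labelled anti-phospho antibody. Compound, kinase and substrate/ATP reacted 2 h at 25 °C in the dark in 50 mM HEPES, 10 mM MgCl2, 1 mM EGTA, 0.01% Tween-20, 2 mM DTT. Eleven-point dilution series made at 4× final.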

PASK, sequence (Q96RG2 999-1251): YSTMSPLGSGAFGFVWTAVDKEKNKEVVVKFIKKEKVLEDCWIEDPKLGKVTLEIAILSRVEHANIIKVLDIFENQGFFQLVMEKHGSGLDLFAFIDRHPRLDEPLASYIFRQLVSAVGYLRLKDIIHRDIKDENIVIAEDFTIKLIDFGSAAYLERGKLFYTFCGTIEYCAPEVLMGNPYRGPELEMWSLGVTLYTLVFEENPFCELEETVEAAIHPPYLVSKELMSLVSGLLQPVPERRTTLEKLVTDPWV

Structure (SMILES) | IC50 [µM]
COc1ccc(-c2cc(=O)n3nc(C)c(Cc4ccccc4Cl)c3[nH]2)cc1 [Example 70, 3-(2-Chlorobenzyl)-5-(4-methoxyphenyl)-2-methylpyrazolo[1,5-a]pyrimidin-7-(4H)-one] | ≤ 10
O=c1cc(-c2ccc3c(c2)OCCO3)[nH]c2c(-c3ccc(N4CCCCC4)nc3)cnn12 [Example 89, 5-(2,3-Dihydrobenzo[b][1,4]dioxin-6-yl)-3-(6-(piperidin-1-yl)pyridin-3-yl)pyrazolo[1,5-a]pyrimidin-7(4H)-one] | ≤ 10
O=c1cc(-c2ccc3c(c2)OCCO3)[nH]c2c(-c3cccc(F)c3)cnn12 [Example 91, 5-(2,3-Dihydrobenzo[b][1,4]dioxin-6-yl)-3-(3-fluorophenyl)pyrazolo[1,5-a]pyrimidin-7(4H)-one] | ≤ 10
O=c1cc(-c2ccc3c(c2)OCCO3)[nH]c2c(-c3cccnc3)c(O)nn12 [Example 101, 5-(2,3-Dihydrobenzo[b][1,4]dioxin-6-yl)-2-hydroxy-3-(pyridin-3-yl)pyrazolo[1,5-a]pyrimidin-7(4H)-one] | ≤ 10
Cc1c(-c2cc(=O)n3nc(O)c(-c4ccccn4)c3[nH]2)ccc2c1OCO2 [Example 231, 2-Hydroxy-5-(4-methylbenzo[d][1,3]dioxol-5-yl)-3-(pyridin-2-yl)pyrazolo[1,5-a]pyrimidin-7(4H)-one] | ≤ 10
Cc1nn2c(=O)cc(-c3ccc4c(c3C)OCO4)[nH]c2c1-c1ccccn1 [Example 232, 2-Methyl-5-(4-methylbenzo[d][1,3]dioxol-5-yl)-3-(pyridin-2-yl)pyrazolo[1,5-a]pyrimidin-7(4H)-one] | ≤ 10
COc1c(-c2cc(=O)n3ncc(-c4ccccn4)c3[nH]2)ccc2c1OCO2 [Example 233, 5-(4-Methoxybenzo[d][1,3]dioxol-5-yl)-3-(pyridin-2-yl)pyrazolo[1,5-a]pyrimidin-7(4H)-one] | ≤ 10
Cc1cc2[nH]nnc2cc1-c1cc(=O)n2ncc(-c3ccccn3)c2[nH]1 [Example 236, 5-(6-Methyl-1H-benzo[d][1,2,3]triazol-5-yl)-3-(pyridin-2-yl)pyrazolo[1,5-a]pyrimidin-7(4H)-one] | ≤ 10
Cc1cc2[nH]nnc2cc1-c1cc(=O)n2nc(N)c(-c3ccccn3)c2[nH]1 [Example 238, 2-Amino-5-(6-methyl-1H-benzo[d][1,2,3]triazol-5-yl)-3-(pyridin-2-yl)pyrazolo[1,5-a]pyrimidin-7(4H)-one] | ≤ 10
Cc1cc2[nH]nnc2cc1-c1cc(=O)n2nc(O)c(-c3ccccn3)c2[nH]1 [Example 239, 2-Hydroxy-5-(6-methyl-1H-benzo[d][1,2,3]triazol-5-yl)-3-(pyridin-2-yl)pyrazolo[1,5-a]pyrimidin-7(4H)-one] | ≤ 10
Cc1c(-c2cc(=O)n3nc(N)c(-c4ccccn4)c3[nH]2)ccc2[nH]nnc12 [Example 240, 2-Amino-5-(4-methyl-1H-benzo[d][1,2,3]triazol-5-yl)-3-(pyridin-2-yl)pyrazolo[1,5-a]pyrimidin-7(4H)-one] | ≤ 10
Cc1c(-c2cc(=O)n3nc(O)c(-c4ccccn4)c3[nH]2)ccc2[nH]nnc12 [Example 241, 2-Hydroxy-5-(4-methyl-1H-benzo[d][1,2,3]triazol-5-yl)-3-(pyridin-2-yl)pyrazolo[1,5-a]pyrimidin-7(4H)-one] | ≤ 10
Cc1nn2c(=O)cc(-c3ccc4[nH]nnc4c3C)[nH]c2c1-c1ccccn1 [Example 242, 2-Methyl-5-(4-methyl-1H-benzo[d][1,2,3]triazol-5-yl)-3-(pyridin-2-yl)pyrazolo[1,5-a]pyrimidin-7(4H)-one] | ≤ 10
COc1cc2[nH]nnc2cc1-c1cc(=O)n2nc(O)c(-c3ccccn3)c2[nH]1 [Example 244, 2-Hydroxy-5-(6-methoxy-1H-benzo[d][1,2,3]triazol-5-yl)-3-(pyridin-2-yl)pyrazolo[1,5-a]pyrimidin-7(4H)-one] | ≤ 10
COc1c(-c2cc(=O)n3nc(N)c(-c4ccccn4)c3[nH]2)ccc2[nH]nnc12 [Example 246, 2-Amino-5-(4-methoxy-1H-benzo[d][1,2,3]triazol-5-yl)-3-(pyridin-2-yl)pyrazolo[1,5-a]pyrimidin-7(4H)-one] | ≤ 10
COc1c(-c2cc(=O)n3nc(O)c(-c4ccccn4)c3[nH]2)ccc2[nH]nnc12 [Example 247, 2-Hydroxy-5-(4-methoxy-1H-benzo[d][1,2,3]triazol-5-yl)-3-(pyridin-2-yl)pyrazolo[1,5-a]pyrimidin-7(4H)-one] | ≤ 10
COc1c(-c2cc(=O)n3nc(C)c(-c4ccccn4)c3[nH]2)ccc2[nH]nnc12 [Example 248, 5-(4-Methoxy-1H-benzo[d][1,2,3]triazol-5-yl)-2-methyl-3-(pyridin-2-yl)pyrazolo[1,5-a]pyrimidin-7(4H)-one] | ≤ 10
CC(C)Oc1c(-c2cc(=O)n3ncc(-c4ccccn4)c3[nH]2)ccc2c1OCO2 [Example 250, 5-(4-Isopropoxybenzo[d][1,3]dioxol-5-yl)-3-(pyridin-2-yl)pyrazolo[1,5-a]pyrimidin-7(4H)-one] | ≤ 10
Cc1nn2c(=O)cc(-c3ccc4c(c3OC(C)C)OCO4)[nH]c2c1-c1ccccn1 [Example 251, 5-(4-Isopropoxybenzo[d][1,3]dioxol-5-yl)-2-methyl-3-(pyridin-2-yl)pyrazolo[1,5-a]pyrimidin-7(4H)-one] | ≤ 10
CNC(=O)Oc1ccc(-c2cc(=O)n3nc(C)c(-c4ccccn4)c3[nH]2)cc1 [Example 252, 4-(2-Methyl-7-oxo-3-(pyridin-2-yl)-4,7-dihydropyrazolo[1,5-a]pyrimidin-5-yl)phenyl methylcarbamate] | ≤ 10
CNC(=O)Oc1ccc(-c2cc(=O)n3ncc(-c4ccccn4)c3[nH]2)cc1 [Example 253, 4-(7-Oxo-3-(pyridin-2-yl)-4,7-dihydropyrazolo[1,5-a]pyrimidin-5-yl)phenyl methylcarbamate] | ≤ 10
O=c1cc(-c2ccc(-c3nnco3)cc2)[nH]c2c(-c3ccccn3)cnn12 [Example 255, 5-(4-(1,3,4-Oxadiazol-2-yl)phenyl)-3-(pyridin-2-yl)pyrazolo[1,5-a]pyrimidin-7(4H)-one] | ≤ 10
